Test results taken from patent US8952024B2, “Herbicidal pyrimidone derivatives” (E I du Pont de Nemours and Company, priority 2009, dated 2015).

Assays:
Format in all cases: in vivo
[1] = system: umbrella sedge (Cyperus difformis); assay: Test B flooded paddy test; conditions: for Plant response rating, Sedge, Umbrella: Flood (flooded paddy test), 13 to 15 days
Description: (§1) Plant species in the flooded paddy test consisted of rice (Oryza sativa), umbrella sedge (Cyperus difformis), ducksalad (Heteranthera limosa) and barnyardgrass (Echinochloa crus-galli) grown to the 2-leaf stage for testing. At the time of treatment, test pots were flooded with water to 3 cm above the soil surface, treated by application of test compounds directly to the paddy water, and then maintained at that water depth for the duration of the test.
(§2) Treated plants and controls were maintained in a greenhouse for 13 to 15 days, after which time all treated plants were visually evaluated and compared to controls. Plant response ratings, summarized in Table B, are based on a scale of 0 to 100 where 0 is no effect and 100 is complete control. A dash (-) response means no test result.

[2] = system: ducksalad (Heteranthera limosa); assay: Test B flooded paddy test; conditions: for Plant response rating, Ducksalad: Flood (flooded paddy test), 13 to 15 days
Description: as §1, §2

rice (Oryza sativa) = assay: Test B flooded paddy test; conditions: for Plant response rating, Rice: Flood (flooded paddy test), 13 to 15 days
Description: as §1, §2

[3] = system: barnyardgrass (Echinochloa crus-galli); assay: Test B flooded paddy test; conditions: for Plant response rating, Barnyardgrass: Flood (flooded paddy test), 13 to 15 days
Description: as §1, §2

[4] = system: giant foxtail (Setaria faberii); assay: Test A pre-/postemergence plant response
Description: (§3) Seeds of barnyardgrass (Echinochloa crus-galli), large crabgrass (Digitaria sanguinalis), giant foxtail (Setaria faberii), morningglory (Ipomoea spp.), pigweed (Amaranthus retroflexus), velvetleaf (Abutilon theophrasti), wheat (Triticum aestivum) and corn (Zea mays) were planted into a blend of loam soil and sand and treated preemergence with a directed soil spray using test chemicals formulated in a non-phytotoxic solvent mixture which included a surfactant. At the same time these species were also treated with postemergence applications of test compounds formulated in the same manner.
(§4) Plants ranged in height from two to ten cm and were in the one- to two-leaf stage for the postemergence treatment. Treated plants and untreated controls were maintained in a greenhouse for approximately ten days, after which time all treated plants were compared to untreated controls and visually evaluated for injury. Plant response ratings, summarized in Table A, are based on a 0 to 100 scale where 0 is no effect and 100 is complete control. A dash (-) response means no test result.

[5] = system: wheat (Triticum aestivum); assay: Test A pre-/postemergence plant response
Description: as §3, §4

[6] = system: velvetleaf (Abutilon theophrasti); assay: Test A pre-/postemergence plant response
Description: as §3, §4

[7] = system: morningglory (Ipomoea spp.); assay: Test A pre-/postemergence plant response
Description: as §3, §4

[8] = system: pigweed (Amaranthus retroflexus); assay: Test A pre-/postemergence plant response
Description: as §3, §4

corn (Zea mays) = assay: Test A pre-/postemergence plant response
Description: as §3, §4

[9] = system: barnyardgrass (Echinochloa crus-galli); assay: Test A pre-/postemergence plant response
Description: as §3, §4

[10] = system: large crabgrass (Digitaria sanguinalis); assay: Test A pre-/postemergence plant response
Description: as §3, §4

[11] = 250 g ai/ha, flooded paddy test, visual rating on 0 to 100 scale (0 no effect, 100 complete control) after 13 to 15 days
[12] = 62 g ai/ha, scale of 0 to 100 where 0 is no effect and 100 is complete control
[13] = 125 g ai/ha, scale 0 to 100, 0 is no effect, 100 is complete control
[14] = Flood, 31 g ai/ha, scale 0 to 100 (0 no effect, 100 complete control)
[15] = Postemergence, 125 g ai/ha, 0 to 100 scale where 0 is no effect and 100 is complete control
[16] = Postemergence, 500 g ai/ha, visual injury, 0 to 100 scale (0 no effect, 100 complete control), approx. ten days
[17] = Preemergence, 125 g ai/ha, 0 to 100 scale, 0 = no effect, 100 = complete control
[18] = Preemergence, 500 g ai/ha, 0 to 100 scale, 0 = no effect, 100 = complete control

In the case of COc1ccc(-n2c(-c3cccc(C)c3)ncc(C(=O)C3=C(O)CCCC3=O)c2=O)cc1 [Compound 212], the “Plant response rating, Flood, Sedge, Umbrella” value [1, 11] is reported as 95, the “Plant response rating, Sedge, Umbrella” value [1, 12] is reported as 85 and the “Plant response rating, Sedge, Umbrella” value [1, 13] is reported as 90. For the same compound, the “Sedge, Umbrella plant response rating” value [1, 14] was 80, the “Plant response rating, Flood, Ducksalad” value [2, 11] was 95 and the “Plant response rating, Ducksalad” value [2, 12] was 85. For the same compound, the “Plant response rating, Ducksalad” value [2, 13] was 90, the “Ducksalad plant response rating” value [2, 14] was 85 and the “Plant response rating, Flood, Rice” value (rice (Oryza sativa); [11]) was 10. For the same compound, the “Plant response rating, Rice” value (rice (Oryza sativa); [12]) was 0, the “Plant response rating, Rice” value (rice (Oryza sativa); [13]) was 0 and the “Rice plant response rating” value (rice (Oryza sativa); [14]) was 0. The “Plant response rating, Flood, Barnyardgrass” value [3, 11] was 50, the “Plant response rating, Barnyardgrass” value [3, 12] was 0 and the “Plant response rating, Barnyardgrass” value [3, 13] was 0. For the same compound, the “Barnyardgrass plant response rating” value [3, 14] was 0, the “Plant response rating, Foxtail, Giant” value [4, 15] was 0 and the “Foxtail, Giant plant response rating” value [4, 16] was 40. For the same compound, the “Plant response rating, Foxtail, Giant” value [4, 17] was 10, the “Plant response rating, Foxtail, Giant” value [4, 18] was 50 and the “Plant response rating, Wheat” value [5, 15] was 0. For the same compound, the “Wheat plant response rating” value [5, 16] was 0, the “Plant response rating, Wheat” value [5, 17] was 0 and the “Plant response rating, Wheat” value [5, 18] was 0. The “Plant response rating, Velvetleaf” value [6, 15] was 70, the “Velvetleaf plant response rating” value [6, 16] was 70 and the “Plant response rating, Velvetleaf” value [6, 17] was 50. For the same compound, the “Plant response rating, Velvetleaf” value [6, 18] was 70, the “Plant response rating, Morningglory” value [7, 15] was 50 and the “Morningglory plant response rating” value [7, 16] was 100. The “Plant response rating, Morningglory” value [7, 17] was 0, the “Plant response rating, Morningglory” value [7, 18] was 80 and the “Plant response rating, Pigweed” value [8, 15] was 100. For the same compound, the “Pigweed plant response rating” value [8, 16] was 100, the “Plant response rating, Pigweed” value [8, 17] was 60 and the “Plant response rating, Pigweed” value [8, 18] was 90. For the same compound, the “Plant response rating, Corn” value (corn (Zea mays); [15]) was 0, the “Corn plant response rating” value (corn (Zea mays); [16]) was 0 and the “Plant response rating, Corn” value (corn (Zea mays); [17]) was 0. For the same compound, the “Plant response rating, Corn” value (corn (Zea mays); [18]) was 0, the “Plant response rating, Barnyardgrass” value [9, 15] was 50 and the “Barnyardgrass plant response rating” value [9, 16] was 100. For the same compound, the “Plant response rating, Barnyardgrass” value [9, 17] was 10, the “Plant response rating, Barnyardgrass” value [9, 18] was 90 and the “Plant response rating, Crabgrass, Large” value [10, 15] was 10. The “Crabgrass, Large plant response rating” value [10, 16] was 30, the “Plant response rating, Crabgrass, Large” value [10, 17] was 0 and the “Plant response rating, Crabgrass, Large” value [10, 18] was 40.
